Results published in patent US11529323B2 (priority 2017, dated 2022).

Legend:
Format in all cases: in vivo, mouse
androgen receptor (AR) = assay: Western blot of androgen receptor in gastrocnemius muscle, Study 1; conditions: irrespective of tumor burden
Procedure: FIGS. 3A-B show gene expression of multiple cachexia-associated markers in gastrocnemius muscles of individual animals from Study 1 (n=5-6 per group). Expression was determined by qRT-PCR (Geometric Mean±Geometric STD). FIG. 3A contains bar graphs showing genes associated with muscle atrophy. FIG. 3B is a bar graph showing androgen receptor (AR) mRNA expression. […] Statistics all panels: *p<0.05, ***p<0.001, ****p<0.0001 versus tumor-bearing vehicle-treated controls, Dunnett's multiple comparison test. CEBPO, n=4, insufficient sample to analyze all tumor-bearing GTx-024-treated animals.
(§1) Western blots from all studies were performed on gastrocnemius muscle from representative animals lysed by Nonidet P-40 isotonic lysis buffer [50 mM Tris-HCl, pH 7.5, 120 mM NaCl, 1% (v/v) Nonidet P-40, 1 mM EDTA, 50 mM NaF, 40 mM glycerophosphate, and […] each of protease inhibitors (aprotinin, pepstatin, and leupeptin)]. Equivalent amounts of protein from each sample, as determined by Bradford assay (Bio-Rad), was resolved by SDS-PAGE and then transferred (semi-dry) onto immobilon-nitrocellulose membranes (Millipore, Billerica, Mass.). Membranes were washed twice with TBST [Tris-buffered saline (TBS) containing 0.1% Tween 20], blocked with 5% nonfat milk in TBST for 1 hour, and then washed an additional 3 times. […]

phospho-STAT3 (pSTAT3) = assay: Western blot of phospho-STAT3 in gastrocnemius muscle, Study 1; conditions: C-26 tumor-bearing animals
From the text: FIG. 4A is a table showing multiplex analysis of diverse serum cytokines in terminal samples from Study 2. Presented cytokines are limited to those showing significant differences from tumor-bearing vehicle-treated controls. G-CSF: granulocyte colony-stimulating factor, GM-CSF: granulocyte macrophage colony-stimulating factor, IL-6: interleukin-6, IL-17: interleukin-17, IP-10: interferon gamma-induced protein 10, KC: chemokine (C-X-C motif) ligand 1, LIF: leukemia inhibitory factor, M-CSF: macrophage colony-stimulating factor. FIG. 4B is a bar graph showin ELISA analysis of serum IL-6 levels in terminal samples from Study 2. ND, not detected. FIG. 4C is a plot showing individual animal serum IL-6 values as determined in A plotted against tumor-corrected terminal bodyweights from Study 2 (Pearson's Correlation). […]
as §1, with “Mass.).” for “Mass.). Membranes were washed twice with TBST [Tris-buffered saline (TBS) containing 0.1% Tween 20], blocked with 5% nonfat milk in TBST for 1 hour, and then washed an additional 3 times.”

[1] = test system: gastrocnemius transcriptome; assay: RNA-seq of gastrocnemius muscles, Study 1; conditions: for expression of Wnt5a, Fzd1, β-catenin (CTNNB1) and GSK3B: gastrocnemius of tumor-bearing mice, AR-42: with the exception of β-catenin
Procedure: For each sample, 600 ng total RNA (Bioanalyzer RIN values>7) was used to generate polyA enriched RNA-seq libraries with the NEBNext Ultra II Directional RNA Library Prep Kit (New England Biolabs, Inc., catolog number E7760) and sequenced as PE-150 reads on HiSeq 4000 (Illumina Inc, San Diego, Calif.). Raw fastq files were adaptor trimmed using Trimmomatic (Bolger, A. M., et al. Bioinformatics 2014 30(15):2114-2120), aligned to the mm10 genome with Subread (Liao Y, et al. Nucleic Acids Res. 2013 41(10):e108), and marked for duplicate reads with Picard v2.3.0. Samtools (Li H., et al. Bioinformatics 2014 25:2078-9) was used to calculate post-alignment quality control metrics (Table 3). A gene-based counts matrix was generated with the summarizeOverlaps function of GenomicAlignments (Lawrence M, et al. PLoS Comput Biol 9(8):e1003118) and analyzed with DESeq2 (Love, M. I., et al. Genome biology 15(12):550) for genes differentially expressed among groups. GSEAPreranked analyses (Subramanian A, et al. Proc Natl Acad Sci USA. 2005 102:15545-15550) were performed using the signed log 10 p-values for each gene to test for significant enrichment of gene sets in the ‘TF Targets’ file downloaded from ge-lab.org/#/data. Any duplication in signed log 10 p-values was removed prior to running the GSEAPreranked analyses by adding a small value sampled at random from a normal distribution with mean zero and standard deviation 0.00001 to each duplicated value. GSEAPreranked analyses were performed in classic mode on gene sets with a minimum and maximum of 5 and 5000 genes in the gene set, respectively, and were followed by leading-edge analyses for selected comparison and gene set combinations. Heatmaps for RNA-seq data were generated with pheatmap using z-scores calculated from log count-per-million values obtained with the ‘cpm’ function in EdgeR (Robinson, M. D., et al. Bioinformatics 2010 26:139-140).

[2] = test system: C-26 colon adenocarcinoma cachexia model; assay: AR-42 dose-response study in the C-26 cachexia model
Procedure: These studies were performed as previously described (Tseng Y C, et al. J Natl Cancer Inst. 2015 107(12):djv274) with modifications. Tumors were established in the right flank by subcutaneous injection of C-26 cells (0.5×10^6 cells in 0.1 mL). […] TFM-4AS-1 (a potent experimental SARM), dihydrotestosterone (DHT) and vehicles were administered by subcutaneous injection.
Male CD2F1 mice were stratified by body weight and then randomly assigned into 5 groups of 6 animals each. C-26 tumors were established in four of the groups, while those in the fifth group, serving as tumor-free controls, were injected with sterile saline. Six days later, animals with palpable tumors were treated with AR-42 once daily at 10 (n=5) and 20 mg/kg (n=6), and every other day at 50 mg/kg (n=5), or vehicle control (n=4) for 13 days. Upon sacrifice on study day 18, when the majority of tumor-bearing control mice met euthanasia criteria, the left gastrocnemius muscle was excised and flash frozen in liquid nitrogen and stored at −80° C. for subsequent analyses. Carcass weights were corrected for tumor weight by assuming a tumor density equivalent to water (1 g/cm^3).

Row | SMILES | AR protein expression in gastrocnemius (androgen receptor (AR)) | pSTAT3 abundance in gastrocnemius muscle (phospho-STAT3 (pSTAT3)) | expression of Wnt5a, Fzd1, β-catenin (CTNNB1) and GSK3B [1] | lowest efficacious dose ([2]; daily oral, C-26 model) [mg/kg] | tumor-corrected body weight ([2]; thirteen daily oral doses of 20 or 10 mg/kg, similar to six 50 mg/kg doses q2d, C-26 tumor-bearing mice, Day 18) | IL-6 receptor (IL-6RA) mRNA expression in gastrocnemius ([1]; cachectic mice)
1 | C[C@](O)(COc1ccc(C#N)cc1)C(=O)Nc1ccc(C#N)c(C(F)(F)F)c1 [GTx-024, (2S)-3-(4-cyanophenoxy)-N-(4-cyano-3-(trifluoromethyl)phenyl)-2-hydroxy-2-methylpropanamide] | increased | no apparent effect on pSTAT3 | failed to restore expression to tumor-free control levels |  |  | 
2 | CC(C)[C@H](C(=O)Nc1ccc(C(=O)NO)cc1)c1ccccc1 [AR-42, (S)—N-hydroxy-4-(3-methyl-2-phenylbutanamido)benzamide] | did not have a marked impact on AR expression | reduced pSTAT3 but not equally in all animals | effectively reversed tumor-induced regulation | 10 | reversed C-26 tumor-mediated reductions in tumor-corrected body weight | restore non-cachectic control levels
